Test results reported in patent US3987167A, “Antibiotic 20,798 R.P” (Rhone-Poulenc S.A., priority 1968, dated 1976).

Legend:
sarcoma 180 = test: Anti-tumour activity in mice, sarcoma 180; details: graftable tumours of mice, solid form of sarcoma 180
[1] = Stability to acid treatment of the fermentation broth; assay type: physicochemical; details: 10° to 75° C., 48 hours to 30 minutes
Description: When desired, the fermentation broth can, before the extraction procedures, be treated with an acid at a temperature between 10° and 75° C. for a period of from 48 hours to 30 minutes, the length of time varying inversely with the temperature, so as to enrich the antibiotic 9865 R.P. with daunorubicin. […] For acidification of the fermentation broth inorganic acids (hydrochloric, phosphoric or sulphuric acid) or organic acids (acetic or oxalic acid etc.) are suitable at various concentrations, but preferably hydrochloric acid or oxalic acid is used at concentrations of between 0.01N and 1N. The hydrolysis is preferably carried out for a period of from 15 hours to 1 hour at a temperature of from 20 C. to 50° C., the length of time varying inversely with the temperature.

[2] = system: acute lymphoblastic and myeloblastic leucaemias; test: Activity in human therapy; assay type: in vivo; details: intravenous, daily doses between 0.1 and 2 mg./kg., adult
Description: In human therapy 20,798 R.P. is active, particularly against acute lymphoblastic and myeloblastic leucaemias, when administered intravenously at daily doses of between 0.1 and 2 mg./kg. for an adult; a composition for injection for example, consists of a solution of 0.1 mg./cc. of active substance in physiological serum.

leucaemia L1210 = test: Anti-tumour activity in mice, leucaemia L1210; details: graftable tumours of mice, leucaemia L 1210

COc1cccc2c1C(=O)c1c(O)c3c(c(O)c1C2=O)CC(O)(C(C)O)CC3OC1CC(N)C(O)C(C)O1 (stereo not shown) [20,798 R.P.]
anti-tumour activity (sarcoma 180): particularly active | hydrolysis on acid treatment [1]: not hydrolysed | activity in human therapy [2]: active | anti-tumour activity (leucaemia L1210): particularly active
